# From patent US10479786B2, “Protein kinase inhibitors” (Princeton Drug Discovery Inc, priority 2016, dated 2019)
# Experiments:
# ACK = target: T1, ACK (Homo sapiens, UniProt Q07912); assay: Off-chip Mobility Shift Assay, kinase inhibition; format: biochemical; settings: recombinant ACK; for inhibition at 0.01 µM: at 10 nM
# T1 construct: purchased Carna Biosciences, Inc
# BLK = target: T2, BLK (Homo sapiens, UniProt P51451); assay: Off-chip Mobility Shift Assay, kinase inhibition; format: biochemical; settings: recombinant BLK; for inhibition at 0.001 µM: at 1 nM; for inhibition at 0.01 µM: at 10 nM
# T2 construct: purchased Carna Biosciences, Inc
# BMX = target: T3, BMX (Homo sapiens, UniProt P51813); assay: Off-chip Mobility Shift Assay, kinase inhibition; format: biochemical; settings: recombinant BMX; for inhibition at 0.001 µM: at 1 nM; for inhibition at 0.01 µM: at 10 nM
# T3 construct: purchased Carna Biosciences, Inc
# T3 sequence (P51813 1-675): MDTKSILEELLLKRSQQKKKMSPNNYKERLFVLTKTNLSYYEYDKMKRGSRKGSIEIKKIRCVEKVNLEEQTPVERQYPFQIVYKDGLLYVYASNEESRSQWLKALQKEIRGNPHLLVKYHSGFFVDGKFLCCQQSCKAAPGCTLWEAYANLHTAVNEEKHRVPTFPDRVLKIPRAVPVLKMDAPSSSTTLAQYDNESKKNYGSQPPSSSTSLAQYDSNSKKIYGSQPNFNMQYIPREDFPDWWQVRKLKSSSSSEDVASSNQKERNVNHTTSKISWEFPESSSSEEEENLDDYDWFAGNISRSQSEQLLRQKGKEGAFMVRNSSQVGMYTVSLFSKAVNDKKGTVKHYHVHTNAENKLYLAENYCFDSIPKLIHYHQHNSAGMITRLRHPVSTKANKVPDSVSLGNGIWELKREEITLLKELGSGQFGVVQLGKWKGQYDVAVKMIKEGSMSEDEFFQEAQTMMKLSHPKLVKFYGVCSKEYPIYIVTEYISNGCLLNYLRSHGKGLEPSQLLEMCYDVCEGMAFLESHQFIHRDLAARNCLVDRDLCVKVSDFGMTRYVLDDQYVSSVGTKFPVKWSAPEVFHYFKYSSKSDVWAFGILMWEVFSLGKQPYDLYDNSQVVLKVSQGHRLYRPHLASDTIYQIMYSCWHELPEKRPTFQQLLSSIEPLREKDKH
# BTK = target: T4, BTK (Homo sapiens, UniProt Q06187); assay: Off-chip Mobility Shift Assay, kinase inhibition; format: biochemical; settings: recombinant BTK; for inhibition at 0.001 µM: at 1 nM; for inhibition at 0.01 µM: at 10 nM
# T4 construct: purchased Carna Biosciences, Inc
# EPHA1 = target: T5, EPHA1 (Homo sapiens, UniProt P21709); assay: Off-chip Mobility Shift Assay, kinase inhibition; format: biochemical; settings: recombinant EPHA1; for inhibition at 0.001 µM: at 1 nM; for inhibition at 0.01 µM: at 10 nM
# T5 construct: purchased Carna Biosciences, Inc
# T5 sequence (P21709 26-976): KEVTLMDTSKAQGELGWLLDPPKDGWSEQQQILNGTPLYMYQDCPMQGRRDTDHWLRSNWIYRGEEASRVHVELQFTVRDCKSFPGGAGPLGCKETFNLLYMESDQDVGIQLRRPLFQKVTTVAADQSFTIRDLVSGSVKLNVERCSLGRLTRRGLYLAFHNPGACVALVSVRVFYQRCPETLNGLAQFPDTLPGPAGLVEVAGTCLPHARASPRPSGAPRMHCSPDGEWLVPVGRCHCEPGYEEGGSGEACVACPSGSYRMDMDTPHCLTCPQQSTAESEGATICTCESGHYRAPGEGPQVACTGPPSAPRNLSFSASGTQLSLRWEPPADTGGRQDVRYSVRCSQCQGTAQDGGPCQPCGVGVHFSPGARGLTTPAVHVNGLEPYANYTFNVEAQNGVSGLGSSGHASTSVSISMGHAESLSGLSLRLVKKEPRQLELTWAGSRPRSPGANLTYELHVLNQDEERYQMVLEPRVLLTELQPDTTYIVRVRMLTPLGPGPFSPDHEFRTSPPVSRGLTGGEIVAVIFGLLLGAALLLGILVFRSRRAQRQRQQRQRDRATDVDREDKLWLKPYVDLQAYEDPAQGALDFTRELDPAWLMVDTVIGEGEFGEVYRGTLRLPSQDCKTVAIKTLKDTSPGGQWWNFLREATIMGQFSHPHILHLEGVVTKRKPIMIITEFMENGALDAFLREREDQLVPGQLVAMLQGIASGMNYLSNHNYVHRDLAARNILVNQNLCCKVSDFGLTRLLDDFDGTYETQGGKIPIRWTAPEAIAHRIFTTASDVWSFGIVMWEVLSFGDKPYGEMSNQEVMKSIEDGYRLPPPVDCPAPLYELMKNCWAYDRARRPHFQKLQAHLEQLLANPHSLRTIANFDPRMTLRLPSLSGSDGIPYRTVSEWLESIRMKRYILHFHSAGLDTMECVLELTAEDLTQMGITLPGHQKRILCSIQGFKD
# FGR = target: T6, FGR (Homo sapiens, UniProt P09769); assay: Off-chip Mobility Shift Assay, kinase inhibition; format: biochemical; settings: recombinant FGR; for inhibition at 0.001 µM: at 1 nM; for inhibition at 0.01 µM: at 10 nM, read-out: inhibition
# T6 construct: purchased Carna Biosciences, Inc
# FRK = target: T7, FRK (Homo sapiens, UniProt P42685); assay: Off-chip Mobility Shift Assay, kinase inhibition; format: biochemical; settings: recombinant FRK; for inhibition at 0.001 µM: at 1 nM; for inhibition at 0.01 µM: at 10 nM
# T7 construct: purchased Carna Biosciences, Inc
# FYN(isoform a) = target: T8, FYN(isoform a) (Homo sapiens, UniProt P06241); assay: Off-chip Mobility Shift Assay, kinase inhibition; format: biochemical; settings: recombinant FYN(isoform a); for inhibition at 0.001 µM: at 1 nM; for inhibition at 0.01 µM: at 10 nM
# T8 construct: purchased Carna Biosciences, Inc
# HCK = target: T9, HCK (Homo sapiens, UniProt P08631); assay: Off-chip Mobility Shift Assay, kinase inhibition; format: biochemical; settings: recombinant HCK; for inhibition at 0.001 µM: at 1 nM; for inhibition at 0.01 µM: at 10 nM, read-out: inhibition
# T9 construct: purchased Carna Biosciences, Inc
# LYNa = target: T10, LYNa (Homo sapiens, UniProt P07948); assay: Off-chip Mobility Shift Assay, kinase inhibition; format: biochemical; settings: recombinant LYNa; for inhibition at 0.001 µM: at 1 nM; for inhibition at 0.01 µM: at 10 nM, read-out: inhibition
# T10 construct: purchased Carna Biosciences, Inc
# PDGFRα = target: T11, PDGFRα (Homo sapiens, UniProt P16234); assay: Off-chip Mobility Shift Assay, kinase inhibition; format: biochemical; settings: recombinant PDGFRα; for inhibition at 0.001 µM: at 1 nM; for inhibition at 0.01 µM: at 10 nM, read-out: inhibition
# T11 construct: purchased Carna Biosciences, Inc
# PDGFRβ = target: T12, PDGFRβ (Homo sapiens, UniProt P09619); assay: Off-chip Mobility Shift Assay, kinase inhibition; format: biochemical; settings: recombinant PDGFRβ; for inhibition at 0.001 µM: at 1 nM; for inhibition at 0.01 µM: at 10 nM, read-out: inhibition
# T12 construct: purchased Carna Biosciences, Inc
# PIK3CA/PIK3R1 = target: T13, PIK3CA/PIK3R1 (Homo sapiens, UniProt P42336); assay: Off-chip Mobility Shift Assay, kinase inhibition; format: biochemical; settings: recombinant PIK3CA/PIK3R1; for inhibition at 0.01 µM: at 10 nM
# T13 construct: purchased Carna Biosciences, Inc
# [1] = tested on: battery of selected protein kinases; assay: In vitro screen of a battery of selected protein kinases (summary statement); format: biochemical; settings: BTK, BMX, ABL, ABL(E255K), SRC, ACK, ARG, BLK, DDR2, EPHA, FGR, FMS, FRK, FYN, HCK, LCK, LYN, PDGFRα, PDGFRβ, YES, PIK3CA/PIK3R1, among others
# SU-DHL-4 = assay: Cell inhibition assay (PrestoBlue, 48 h); format: cell-based; settings: Homo sapiens, SU-DHL-4, 48 h, SU-DHL-4 diffuse large B-cell lymphoma cells, read-out: IC50, inhibition of growth
# Mino = assay: Cell inhibition assay (PrestoBlue, 48 h); format: cell-based; settings: Homo sapiens, Mino cells, read-out: IC50, inhibition of growth
# T2 sequence (P51451 whole entry): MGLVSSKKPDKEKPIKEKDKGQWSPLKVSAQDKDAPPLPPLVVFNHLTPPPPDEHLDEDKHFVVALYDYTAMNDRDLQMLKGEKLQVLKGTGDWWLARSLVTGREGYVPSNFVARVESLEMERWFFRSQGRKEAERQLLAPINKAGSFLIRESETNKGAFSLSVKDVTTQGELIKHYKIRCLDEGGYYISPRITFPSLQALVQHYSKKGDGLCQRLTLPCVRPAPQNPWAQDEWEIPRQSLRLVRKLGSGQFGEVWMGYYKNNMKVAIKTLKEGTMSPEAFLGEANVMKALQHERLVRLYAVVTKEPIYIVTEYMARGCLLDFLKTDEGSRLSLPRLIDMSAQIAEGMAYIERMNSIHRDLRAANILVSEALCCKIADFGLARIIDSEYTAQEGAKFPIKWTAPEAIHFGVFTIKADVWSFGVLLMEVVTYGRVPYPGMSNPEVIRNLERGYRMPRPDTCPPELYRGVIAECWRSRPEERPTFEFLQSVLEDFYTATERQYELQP
# T4 sequence (Q06187 whole entry): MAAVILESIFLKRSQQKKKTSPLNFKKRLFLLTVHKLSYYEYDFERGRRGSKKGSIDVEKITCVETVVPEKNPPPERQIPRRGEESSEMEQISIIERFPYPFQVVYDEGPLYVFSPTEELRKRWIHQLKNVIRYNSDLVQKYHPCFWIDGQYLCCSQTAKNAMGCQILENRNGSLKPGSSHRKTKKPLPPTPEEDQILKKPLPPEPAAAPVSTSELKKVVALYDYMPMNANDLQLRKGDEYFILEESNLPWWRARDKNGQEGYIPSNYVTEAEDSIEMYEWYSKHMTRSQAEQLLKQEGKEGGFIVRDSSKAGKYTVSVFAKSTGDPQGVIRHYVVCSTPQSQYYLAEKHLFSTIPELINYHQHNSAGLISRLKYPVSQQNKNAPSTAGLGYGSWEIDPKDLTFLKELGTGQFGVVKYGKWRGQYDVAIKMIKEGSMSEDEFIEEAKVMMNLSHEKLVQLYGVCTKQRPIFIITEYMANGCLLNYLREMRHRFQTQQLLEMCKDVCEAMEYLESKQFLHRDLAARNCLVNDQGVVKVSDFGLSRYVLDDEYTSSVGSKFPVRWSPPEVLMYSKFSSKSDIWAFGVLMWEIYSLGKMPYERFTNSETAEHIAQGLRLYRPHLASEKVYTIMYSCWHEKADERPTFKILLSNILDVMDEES
# T6 sequence (P09769 whole entry): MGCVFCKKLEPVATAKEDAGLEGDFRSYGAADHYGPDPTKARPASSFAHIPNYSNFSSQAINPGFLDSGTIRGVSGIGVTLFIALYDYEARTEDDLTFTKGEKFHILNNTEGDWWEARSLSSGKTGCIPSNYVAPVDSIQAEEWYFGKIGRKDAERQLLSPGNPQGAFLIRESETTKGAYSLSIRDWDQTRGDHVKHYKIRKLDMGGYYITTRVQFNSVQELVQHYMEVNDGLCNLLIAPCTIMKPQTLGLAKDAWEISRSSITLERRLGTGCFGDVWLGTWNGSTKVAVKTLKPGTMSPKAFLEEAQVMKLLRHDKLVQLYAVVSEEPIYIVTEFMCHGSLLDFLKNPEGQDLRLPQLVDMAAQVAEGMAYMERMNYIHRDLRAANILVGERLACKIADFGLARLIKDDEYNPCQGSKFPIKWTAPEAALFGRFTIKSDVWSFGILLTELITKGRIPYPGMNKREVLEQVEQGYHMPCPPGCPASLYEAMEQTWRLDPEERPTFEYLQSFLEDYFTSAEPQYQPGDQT
# T11 sequence (P16234 24-1089): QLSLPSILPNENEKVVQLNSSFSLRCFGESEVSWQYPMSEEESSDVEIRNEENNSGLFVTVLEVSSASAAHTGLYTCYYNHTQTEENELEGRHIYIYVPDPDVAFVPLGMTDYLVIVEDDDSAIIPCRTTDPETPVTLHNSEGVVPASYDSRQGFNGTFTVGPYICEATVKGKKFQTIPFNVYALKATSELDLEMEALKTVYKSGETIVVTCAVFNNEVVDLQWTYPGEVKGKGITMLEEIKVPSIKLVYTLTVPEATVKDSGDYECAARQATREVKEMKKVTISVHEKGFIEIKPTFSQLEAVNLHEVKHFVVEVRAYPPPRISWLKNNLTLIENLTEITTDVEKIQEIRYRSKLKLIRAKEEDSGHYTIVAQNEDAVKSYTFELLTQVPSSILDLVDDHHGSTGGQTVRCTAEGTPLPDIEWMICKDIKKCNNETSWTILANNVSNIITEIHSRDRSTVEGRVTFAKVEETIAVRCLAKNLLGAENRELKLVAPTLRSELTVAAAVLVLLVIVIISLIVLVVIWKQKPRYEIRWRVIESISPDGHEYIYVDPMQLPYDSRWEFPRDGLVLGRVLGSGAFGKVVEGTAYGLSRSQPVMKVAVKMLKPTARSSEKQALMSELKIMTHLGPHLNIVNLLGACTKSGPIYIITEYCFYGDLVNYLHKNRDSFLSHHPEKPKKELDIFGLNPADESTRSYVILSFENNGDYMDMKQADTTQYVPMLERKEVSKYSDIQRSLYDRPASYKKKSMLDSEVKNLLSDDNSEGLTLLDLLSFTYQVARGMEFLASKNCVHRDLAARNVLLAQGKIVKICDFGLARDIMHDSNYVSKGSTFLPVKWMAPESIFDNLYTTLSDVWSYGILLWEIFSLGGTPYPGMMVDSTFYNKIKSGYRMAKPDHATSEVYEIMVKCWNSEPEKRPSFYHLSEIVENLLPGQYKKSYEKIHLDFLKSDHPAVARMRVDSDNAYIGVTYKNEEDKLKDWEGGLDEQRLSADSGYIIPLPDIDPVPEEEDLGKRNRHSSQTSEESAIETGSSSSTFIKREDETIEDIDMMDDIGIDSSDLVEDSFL
# T7 sequence (P42685 whole entry): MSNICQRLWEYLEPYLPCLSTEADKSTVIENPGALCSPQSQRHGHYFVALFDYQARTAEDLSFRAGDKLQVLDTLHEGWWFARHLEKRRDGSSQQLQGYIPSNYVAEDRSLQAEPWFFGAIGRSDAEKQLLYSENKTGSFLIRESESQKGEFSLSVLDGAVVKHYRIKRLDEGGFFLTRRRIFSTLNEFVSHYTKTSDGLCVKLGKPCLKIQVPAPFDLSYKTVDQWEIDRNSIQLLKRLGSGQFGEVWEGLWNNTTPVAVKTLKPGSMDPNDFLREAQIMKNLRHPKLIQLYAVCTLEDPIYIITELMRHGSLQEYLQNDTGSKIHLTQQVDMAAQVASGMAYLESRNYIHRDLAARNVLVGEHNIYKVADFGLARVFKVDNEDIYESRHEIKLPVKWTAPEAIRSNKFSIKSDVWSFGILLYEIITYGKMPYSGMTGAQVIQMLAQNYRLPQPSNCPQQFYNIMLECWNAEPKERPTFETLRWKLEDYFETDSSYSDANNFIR
# T10 sequence (P07948 whole entry): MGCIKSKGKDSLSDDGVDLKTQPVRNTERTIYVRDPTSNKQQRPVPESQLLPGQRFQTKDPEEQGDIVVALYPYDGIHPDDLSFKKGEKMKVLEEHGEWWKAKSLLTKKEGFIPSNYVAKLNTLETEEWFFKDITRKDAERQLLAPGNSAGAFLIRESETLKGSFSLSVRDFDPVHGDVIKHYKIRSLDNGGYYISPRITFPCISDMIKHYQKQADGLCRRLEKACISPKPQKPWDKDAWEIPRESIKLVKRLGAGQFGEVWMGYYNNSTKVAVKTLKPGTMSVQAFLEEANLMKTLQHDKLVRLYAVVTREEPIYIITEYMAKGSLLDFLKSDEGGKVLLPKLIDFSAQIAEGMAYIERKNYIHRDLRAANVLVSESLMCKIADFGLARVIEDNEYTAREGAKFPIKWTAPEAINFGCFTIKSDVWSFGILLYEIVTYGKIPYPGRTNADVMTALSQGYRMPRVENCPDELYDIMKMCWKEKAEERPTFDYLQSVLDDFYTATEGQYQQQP
# T1 sequence (Q07912 whole entry): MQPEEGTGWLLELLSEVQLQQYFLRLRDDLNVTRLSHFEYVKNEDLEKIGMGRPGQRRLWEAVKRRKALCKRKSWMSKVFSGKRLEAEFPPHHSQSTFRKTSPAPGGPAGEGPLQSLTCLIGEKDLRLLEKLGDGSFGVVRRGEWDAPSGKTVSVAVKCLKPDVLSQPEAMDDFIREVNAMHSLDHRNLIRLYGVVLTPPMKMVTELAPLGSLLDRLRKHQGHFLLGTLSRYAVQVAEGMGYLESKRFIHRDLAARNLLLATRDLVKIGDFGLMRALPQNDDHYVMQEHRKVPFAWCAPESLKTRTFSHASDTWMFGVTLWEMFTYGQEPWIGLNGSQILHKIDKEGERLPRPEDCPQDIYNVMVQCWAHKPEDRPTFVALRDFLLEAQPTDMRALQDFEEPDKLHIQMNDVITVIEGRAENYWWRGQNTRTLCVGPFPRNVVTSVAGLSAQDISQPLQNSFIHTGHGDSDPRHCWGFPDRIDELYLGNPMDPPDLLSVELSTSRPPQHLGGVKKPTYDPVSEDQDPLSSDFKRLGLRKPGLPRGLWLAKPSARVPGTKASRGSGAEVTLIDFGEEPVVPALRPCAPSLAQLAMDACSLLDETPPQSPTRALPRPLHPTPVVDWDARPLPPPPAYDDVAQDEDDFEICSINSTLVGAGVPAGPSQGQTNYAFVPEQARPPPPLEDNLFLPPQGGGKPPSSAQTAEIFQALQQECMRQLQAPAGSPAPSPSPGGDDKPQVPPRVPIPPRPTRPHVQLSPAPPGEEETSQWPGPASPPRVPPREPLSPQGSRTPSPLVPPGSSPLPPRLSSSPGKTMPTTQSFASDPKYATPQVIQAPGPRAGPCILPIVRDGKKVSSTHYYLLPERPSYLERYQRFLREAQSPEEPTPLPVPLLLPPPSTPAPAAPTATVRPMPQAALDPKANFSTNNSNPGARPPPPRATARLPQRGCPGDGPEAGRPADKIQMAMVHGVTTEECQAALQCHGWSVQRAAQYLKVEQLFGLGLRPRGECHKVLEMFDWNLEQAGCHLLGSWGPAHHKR
inhibition at 0.01 µM (ACK) [%],inhibition at 0.01 µM (BLK) [%],inhibition at 0.001 µM (BMX) [%],inhibition at 0.01 µM (BMX) [%],inhibition at 0.001 µM (BTK) [%],inhibition at 0.01 µM (BTK) [%],inhibition at 0.01 µM (EPHA1) [%],inhibition at 0.01 µM (FGR) [%],inhibition at 0.01 µM (FRK) [%],inhibition at 0.01 µM (FYN(isoform a)) [%],inhibition at 0.001 µM (HCK) [%],inhibition at 0.01 µM (HCK) [%],inhibition at 0.001 µM (LYNa) [%],inhibition at 0.01 µM (LYNa) [%],inhibition at 0.01 µM (PDGFRα) [%],inhibition at 0.01 µM (PDGFRβ) [%],inhibition at 0.01 µM (PIK3CA/PIK3R1) [%],IC50 (SU-DHL-4) [nM],Structure (SMILES),activity to inhibit kinases [1],IC50 (Mino) [nM],further results
> 50,> 50,> 50,> 50,> 50,> 50,> 50,> 50,> 50,> 50,> 50,> 50,> 50,> 50,> 50,> 50,> 50,< 20,"[2H]c1cc(C)c(NC(=O)c2cnc(Nc3cc(N4CC[C@@H](N)C4)nc(C)n3)s2)c(Cl)c1 [Compound VII, N-(2-chloro-4-deutero-6-methylphenyl)-2-[[2-methyl-6-((R)-3-aminopyrrolidin-1-yl)pyrimidin-4-yl]amino]thiazole-5-carboxamide]",potent activity,< 50,
> 50,> 50,> 50,> 50,> 50,> 50,> 50,> 50,> 50,> 50,> 50,> 50,> 50,> 50,> 50,> 50,> 50,< 20,"[2H]c1cc(C)c(NC(=O)c2cnc(Nc3cc(N4CC[C@H](N)C4)nc(C)n3)s2)c(Cl)c1 [Compound VI, N-(2-chloro-4-dutero-6-methylphenyl)-2-[[2-methyl-6-((S)-3-aminopyrrolidin-1-yl)pyrimidin-4-yl]amino]thiazole-5-carboxamide]",potent activity,< 50,

# Continued, compound first:
Structure (SMILES),inhibition at 0.01 µM (ACK) [%],inhibition at 0.01 µM (BLK) [%],inhibition at 0.001 µM (BMX) [%],inhibition at 0.01 µM (BMX) [%],inhibition at 0.001 µM (BTK) [%],inhibition at 0.01 µM (BTK) [%],inhibition at 0.01 µM (EPHA1) [%],inhibition at 0.01 µM (FGR) [%],inhibition at 0.01 µM (FRK) [%],inhibition at 0.01 µM (FYN(isoform a)) [%],inhibition at 0.001 µM (HCK) [%],inhibition at 0.01 µM (HCK) [%],inhibition at 0.001 µM (LYNa) [%],inhibition at 0.01 µM (LYNa) [%],inhibition at 0.01 µM (PDGFRα) [%],inhibition at 0.01 µM (PDGFRβ) [%],inhibition at 0.01 µM (PIK3CA/PIK3R1) [%],IC50 (SU-DHL-4) [nM],activity to inhibit kinases [1],IC50 (Mino) [nM],further results
"[2H]c1cc(C)c(NC(=O)c2cnc(Nc3cc(N4CCC(O)CC4)nc(C)n3)s2)c(Cl)c1 [Compound II, N-(2-chloro-4-deuterio-6-methyl-phenyl)-2-[[6-(4-hydroxy-1-piperidyl)-2-methyl-pyrimidin-4-yl]amino]thiazole-5-carboxamide]",> 50,> 50,> 50,> 50,> 50,> 50,> 50,> 50,> 50,> 50,> 50,> 50,> 50,> 50,> 50,> 50,> 50,< 20,potent activity,< 50,inhibition at 0.001 µM (BLK): > 50%; inhibition at 0.001 µM (EPHA1): > 50%; inhibition at 0.001 µM (FGR): > 50%; inhibition at 0.001 µM (FRK): > 50%; inhibition at 0.001 µM (FYN(isoform a)): > 50%; inhibition at 0.001 µM (PDGFRα): < 50%; inhibition at 0.1 µM (PDGFRα; at 100 nM): > 50%; inhibition at 0.001 µM (PDGFRβ): < 50%; inhibition at 0.1 µM (PDGFRβ; at 100 nM): > 50%; inhibition at 0.001 µM (PIK3CA/PIK3R1; at 1 nM): < 50%; inhibition at 0.1 µM (PIK3CA/PIK3R1; at 100 nM): < 50%
"[2H]c1cc(C)c(NC(=O)c2cnc(Nc3cc(N4CCCCC4)nc(C)n3)s2)c(Cl)c1 [Compound I, N-(2-chloro-4-deuterio-6-methyl-phenyl)-2-[[2-methyl-6-(1-piperidyl)pyrimidin-4-yl]amino]thiazole-5-carboxamide]",> 50,> 50,> 50,> 50,> 50,> 50,> 50,> 50,> 50,> 50,> 50,> 50,> 50,> 50,> 50,> 50,> 50,< 20,potent activity,< 50,inhibition at 0.001 µM (ACK; at 1 nM): > 50%; inhibition at 0.001 µM (BLK): > 50%; inhibition at 0.001 µM (EPHA1): > 50%; inhibition at 0.001 µM (FGR): > 50%; inhibition at 0.001 µM (FRK): > 50%; inhibition at 0.001 µM (FYN(isoform a)): > 50%; inhibition at 0.001 µM (PDGFRα): > 50%; inhibition at 0.001 µM (PDGFRβ): > 50%
"[2H]c1cc(C)c(NC(=O)c2cnc(Nc3cc(N4CC[C@H](O)C4)nc(C)n3)s2)c(Cl)c1 [Compound IV, N-(2-chloro-4-deutero-6-methylphenyl)-2-[[2-methyl-6-((S)-3-hydroxypyrrolidin-1-yl)pyrimidin-4-yl]amino]thiazole-5-carboxamide]",> 50,> 50,> 50,> 50,> 50,> 50,> 50,> 50,> 50,> 50,> 50,> 50,> 50,> 50,> 50,> 50,> 50,< 20,potent activity,< 50,
